US20240059698A1 (Accutar Biotechnology Inc., priority 2022, published 2024)

Columns and labels:
[1] = test system: HCC827-SVD cells (human EGFR exon 20 insertion mutant D770_N771insSVD); test: Cell growth inhibition (CellTiter-Glo), HCC827-SVD; type: cell-based; details: 72 h, 3 days
Description: (§1) Generation of HCC827-SVD, HCC827-ASV, and HCC827-YVMA cell lines. The HCC827-SVD cell line was generated by first transducing HCC827 cells (ATCC) with lentiviral particles expressing codon-optimized human EGFR exon 20 insertion mutant D770_N771insSVD, and then selecting under 5 µg/mL puromycin treatment for a week. The resulting cells were further transduced with lentiviral particles carrying EGFR sgRNA and CAS9 to knockout the endogenous alleles of EGER and then selected under 500 µg/mL hygromycin B treatment for two weeks. The limiting dilution approach was used to subsequently generate the single clone of the HCC827-SVD stable cell line. Endogenous EGFR knockout was confirmed by Sanger sequencing of cell genomic DNA, and expression of exogenous mutant EGFR was verified by Western blot analysis.
(§2) 2. Cell Growth Inhibition for HCC827, HCC827-SVD, HCC827-ASV, HCC827-YVMA, and A431.
(§3) HCC827(ATCC), HCC827-SVD, HCC827-ASV, and HCC827-YVMA cells were seeded in 96-well plates at 5000 cells/well in 90 μL of RPMI growth medium containing 10% FBS and 1% Penicillin Streptomycin. A431 (ATCC) cells were seeded in 96-well plates at 5000 cells/well in 90 μL of DMEM growth medium containing 10% FBS and 1% Penicillin Streptomycin. Cells were incubated at 37° C. overnight and then administered with 10 μL 10× test compounds prepared in the growth medium at various concentrations. After administration of the compounds, cells were incubated at 37° C. for 3 days. Before the CellTiter-Glo assay, the plates were equilibrated at room temperature for approximately 30 minutes. 100 ul of CellTiter-Glo reagent (Promega) was added to each well. The plates were then incubated at room temperature for 10 minutes and luminescence was recorded by the EnSight® multimode plate reader (PerkinElmer). Table 7 listed selected compounds in cellular growth assay.

[2] = test system: HCC827-YVMA cells (human ERBB2 exon20 insertion mutant A775_G776ins YVMA); test: Cell growth inhibition (CellTiter-Glo), HCC827-YVMA; type: cell-based; details: 72 h, HCC827-YVMA cells, 3 days, CellTiter-Glo, read-out: Cell growth inhibition, GI50 (nM) HCC827-YVMA
Description: as §1
HCC827-ASV and HCC827-YVMA cell lines were generated in a similar approach as HCC827-SVD, except that HCC827 cells (ATCC) were first transduced with lentiviral particles expressing codon-optimized human EGFR exon 20 insertion mutant V769_D770insASV and human ERBB2 exon20 insertion mutant A775_G776ins YVMA, respectively.
as §2, §3

Which results are given for `C=CC(=O)N1CCC(c2c(-c3ccc(N4CCN(C)CC4)cc3)[nH]c3ncnc(Nc4ccc(OCc5ccccn5)c(Cl)c4)c23)CC1` [Compound 74, 1-(4-(4-((3-chloro-4-(pyridin-2-ylmethoxy)phenyl)amino)-6-(4-(4-methylpiperazin-1-yl)phenyl)-7H-pyrrolo[2,3-d]pyrimidin-5-yl)piperidin-1-yl)prop-2-en-1-one]?
GI50 [1]: < 50 nM; GI50 [2]: < 50 nM

How did the GI50 [1] turn out when `C=CC(=O)N1CCC(c2c[nH]c3ncnc(Nc4ccc(OCc5ccc6sccc6n5)c(Cl)c4)c23)CC1` [Compound 75, 1-(4-(4-((3-chloro-4-(thieno[3,2-b]pyridin-5-ylmethoxy)phenyl)amino)-7H-pyrrolo[2,3-d]pyrimidin-5-yl)piperidin-1-yl)prop-2-en-1-one] was run?
The GI50 was less than 50 nM.

What about the GI50 [2] of the same compound?
The GI50 was less than 50 nM.

How did the GI50 [1] turn out when `C=CC(=O)N1CCC(c2c(C)[nH]c3ncnc(Nc4ccc(OCc5ccccn5)c(Cl)c4)c23)CC1` [Compound 76, 1-(4-(4-((3-chloro-4-(pyridin-2-ylmethoxy)phenyl)amino)-6-methyl-7H-pyrrolo[2,3-d]pyrimidin-5-yl)piperidin-1-yl)prop-2-en-1-one] was run?
The GI50 was less than 50 nM.

What about the GI50 [2] of the same compound?
The GI50 was less than 50 nM.

For `C=CC(=O)N1CCC(c2c[nH]c3ncnc(Nc4ccc(OCc5cncnc5)c(Cl)c4)c23)CC1` [Compound 77, 1-(4-(4-((3-chloro-4-(pyrimidin-5-ylmethoxy)phenyl)amino)-7H-pyrrolo[2,3-d]pyrimidin-5-yl)piperidin-1-yl)prop-2-en-1-one], which GI50 [1] is on record?
Its GI50 is less than 50 nM.

What about the GI50 [2] of the same compound?
The GI50 was less than 50 nM.

Which results are given for `C=CC(=O)N1CCC(c2c[nH]c3ncnc(Nc4ccc(Oc5ccnc(Nc6cnccn6)c5)cc4F)c23)CC1` [Compound 78, 1-(4-(4-((2-fluoro-4-((2-(pyrazin-2-ylamino)pyridin-4-yl)oxy)phenyl)amino)-7H-pyrrolo[2,3-d]pyrimidin-5-yl)piperidin-1-yl)prop-2-en-1-one]?
GI50 [1]: 200 to 1000 nM; GI50 [2]: 50 to 200 nM

`C=CC(=O)N1CCC(c2c[nH]c3ncnc(Nc4ccc(OCc5ccnc(N6CC7CC7C6)c5)cc4F)c23)CC1` (centres unmarked) [Compound 79, 1-(4-(4-((4-((2-(3-azabicyclo[3.1.0]hexan-3-yl)pyridin-4-yl)methoxy)-2-fluorophenyl)amino)-7H-pyrrolo[2,3-d]pyrimidin-5-yl)piperidin-1-yl)prop-2-en-1-one] was tested. Which GI50 [1] did it give?
Its GI50 is 200 to 1000 nM.

And the GI50 [2]?
The GI50 was 200 to 1000 nM.

What does the source list for `C=CC(=O)N1CCC(c2c[nH]c3ncnc(Nc4ccc(OCc5cncc(OC)c5)c(Cl)c4)c23)CC1` [Compound 80, 1-(4-(4-((3-chloro-4-((5-methoxypyridin-3-yl)methoxy)phenyl)amino)-7H-pyrrolo[2,3-d]pyrimidin-5-yl)piperidin-1-yl)prop-2-en-1-one]?
GI50 [1]: < 50 nM; GI50 [2]: < 50 nM

With `C=CC(=O)N1CCC(c2c[nH]c3ncnc(Nc4ccc(OCc5ccnn5CC)c(Cl)c4)c23)CC1` [Compound 81, 1-(4-(4-((3-chloro-4-((1-ethyl-1H-pyrazol-5-yl)methoxy)phenyl)amino)-7H-pyrrolo[2,3-d]pyrimidin-5-yl)piperidin-1-yl)prop-2-en-1-one] as the compound, how does the GI50 [1] read?
The GI50 was 50 to 200 nM.

What about the GI50 [2] of the same compound?
The GI50 was 50 to 200 nM.

How did the GI50 [1] turn out when `C=CC(=O)N1CCC(c2c[nH]c3ncnc(Nc4ccc(Oc5ccnc(-c6cccc(F)c6)c5)cc4F)c23)CC1` [Compound 82, 1-(4-(4-((2-fluoro-4-((2-(3-fluorophenyl)pyridin-4-yl)oxy)phenyl)amino)-7H-pyrrolo[2,3-d]pyrimidin-5-yl)piperidin-1-yl)prop-2-en-1-one] was run?
The GI50 was greater than 1000 nM.

And the GI50 [2]?
Its GI50 is 200 to 1000 nM.

`C=CC(=O)N1CCC(c2c[nH]c3ncnc(Nc4ccc(Oc5ccnc(Nc6ccncn6)c5)cc4F)c23)CC1` [Compound 83, 1-(4-(4-((2-fluoro-4-((2-(pyrimidin-4-ylamino)pyridin-4-yl)oxy)phenyl)amino)-7H-pyrrolo[2,3-d]pyrimidin-5-yl)piperidin-1-yl)prop-2-en-1-one] was tested. Which GI50 [1] did it give?
The GI50 was 200 to 1000 nM.

What about the GI50 [2] of the same compound?
The GI50 was 50 to 200 nM.

How did the GI50 [1] turn out when `C=CC(=O)N1CCC(c2c[nH]c3ncnc(Nc4ccc(OCc5ccnc(NC6CCC6)c5)cc4F)c23)CC1` [Compound 84, 1-(4-(4-((4-((2-(cycloButylamino)pyridin-4-yl)methoxy)-2-fluorophenyl)amino)-7H-pyrrolo[2,3-d]pyrimidin-5-yl)piperidin-1-yl)prop-2-en-1-one] was run?
The GI50 was less than 50 nM.

And the GI50 [2]?
Its GI50 is 50 to 200 nM.

How did the GI50 [1] turn out when `C=CC(=O)N1CCC(c2c[nH]c3ncnc(Nc4ccc(OCc5cn(C(C)C)cn5)c(Cl)c4)c23)CC1` [Compound 85, 1-(4-(4-((3-chloro-4-((1-isopropyl-1H-imidazol-4-yl)methoxy)phenyl)amino)-7H-pyrrolo[2,3-d]pyrimidin-5-yl)piperidin-1-yl)prop-2-en-1-one] was run?
Its GI50 is 50 to 200 nM.

What about the GI50 [2] of the same compound?
Its GI50 is 50 to 200 nM.

What does the source list for `C=CC(=O)N1CCC(c2c[nH]c3ncnc(Nc4ccc(OCc5cncs5)c(Cl)c4)c23)CC1` [Compound 86, 1-(4-(4-((3-chloro-4-(thiazol-5-ylmethoxy)phenyl)amino)-7H-pyrrolo[2,3-d]pyrimidin-5-yl)piperidin-1-yl)prop-2-en-1-one]?
GI50 [1]: < 50 nM; GI50 [2]: < 50 nM

What does the source list for `C=CC(=O)N1CCC(c2c[nH]c3ncnc(Nc4ccc(OCc5cnc(C(F)(F)F)s5)c(Cl)c4)c23)CC1` [Compound 87, 1-(4-(4-((3-chloro-4-((2-(trifluoromethyl)thiazol-5-yl)methoxy)phenyl)amino)-7H-pyrrolo[2,3-d]pyrimidin-5-yl)piperidin-1-yl)prop-2-en-1-one]?
GI50 [1]: 50 to 200 nM; GI50 [2]: 50 to 200 nM

With `C=CC(=O)N1CCC(c2c[nH]c3ncnc(Nc4ccc(OCc5cccc(C6CC6)n5)c(Cl)c4)c23)CC1` [Compound 88, 1-(4-(4-((3-chloro-4-((6-cyclopropylpyridin-2-yl)methoxy)phenyl)amino)-7H-pyrrolo[2,3-d]pyrimidin-5-yl)piperidin-1-yl)prop-2-en-1-one] as the compound, how does the GI50 [1] read?
Its GI50 is 50 to 200 nM.

And the GI50 [2]?
The GI50 was 50 to 200 nM.

Which GI50 [1] does the source give for `C=CC(=O)N1CCC(c2c[nH]c3ncnc(Nc4ccc(OCc5cc(C6CC6)ccn5)c(Cl)c4)c23)CC1` [Compound 89, 1-(4-(4-((3-chloro-4-((4-cyclopropylpyridin-2-yl)methoxy)phenyl)amino)-7H-pyrrolo[2,3-d]pyrimidin-5-yl)piperidin-1-yl)prop-2-en-1-one] here?
Its GI50 is 50 to 200 nM.

What about the GI50 [2] of the same compound?
The GI50 was 50 to 200 nM.

For `C=CC(=O)N1CCC(c2c[nH]c3ncnc(Nc4ccc(Oc5ccnc(NC(=O)C(C)(C)C)c5)cc4F)c23)CC1` [Compound 91, N-(4-(4-((5-(1-acryloylpiperidin-4-yl)-7H-pyrrolo[2,3-d]pyrimidin-4-yl)amino)-3-fluorophenoxy)pyridin-2-yl)pivalamide], which GI50 [1] is on record?
The GI50 was 200 to 1000 nM.

What about the GI50 [2] of the same compound?
Its GI50 is less than 50 nM.

For `C=CC(=O)N1CCC(c2c[nH]c3ncnc(Nc4ccc(Oc5ccnc(N6CC(N(C)C)C6)c5)cc4F)c23)CC1` [Compound 129, 1-(4-(4-((4-((2-(3-(dimethylamino)azetidin-1-yl)pyridin-4-yl)oxy)-2-fluorophenyl)amino)-7H-pyrrolo[2,3-d]pyrimidin-5-yl)piperidin-1-yl)prop-2-en-1-one], which GI50 [1] is on record?
Its GI50 is 200 to 1000 nM.

And the GI50 [2]?
The GI50 was 200 to 1000 nM.

For `C=CC(=O)N1CCC(c2c[nH]c3ncnc(Nc4ccc(Oc5ccnc(N6CC(O)(C(C)C)C6)c5)cc4F)c23)CC1` [Compound 130, 1-[4-[4-[2-fluoro-4-[[2-(3-hydroxy-3-isopropyl-azetidin-1-yl)-4-pyridyl]oxy]anilino]-7H-pyrrolo[2,3-d]pyrimidin-5-yl]-1-piperidyl]prop-2-en-1-one], which GI50 [1] is on record?
The GI50 was 50 to 200 nM.

What about the GI50 [2] of the same compound?
The GI50 was 50 to 200 nM.

`C=CC(=O)N1CCC(c2csc3ncnc(Nc4ccc(Oc5ccnc(NC(=O)C6CCCC6)c5)cc4F)c23)CC1` [Compound 161, N-(4-(4-((5-(1-acryloylpiperidin-4-yl)thieno[2,3-d]pyrimidin-4-yl)amino)-3-fluorophenoxy)pyridin-2-yl)cyclopentanecarboxamide] was tested. Which GI50 [1] did it give?
The GI50 was 200 to 1000 nM.

And the GI50 [2]?
The GI50 was 50 to 200 nM.

Which GI50 [1] does the source give for `C=CC(=O)N1CCC(c2csc3ncnc(Nc4ccc(Oc5ccnc(NC(=O)C(C)(C)C)c5)cc4F)c23)CC1` [Compound 162, N-(4-(4-((5-(1-acryloylpiperidin-4-yl)thieno[2,3-d]pyrimidin-4-yl)amino)-3-fluorophenoxy)pyridin-2-yl)pivalamide] here?
The GI50 was greater than 1000 nM.

And the GI50 [2]?
Its GI50 is 200 to 1000 nM.

How did the GI50 [1] turn out when `C=CC(=O)N1CCC(c2n[nH]c3ncnc(Nc4ccc(Oc5cccc(S(=O)(=O)NC6CC(F)(F)C6)c5)cc4F)c23)CC1` [Compound 185, 3-(4-((3-(1-acryloylpiperidin-4-yl)-1H-pyrazolo[3,4-d]pyrimidin-4-yl)amino)-3-fluorophenoxy)-N-(3,3-difluorocycloButyl)benzenesulfonamide] was run?
Its GI50 is 50 to 200 nM.

And the GI50 [2]?
The GI50 was 50 to 200 nM.
